Experimental data published in patent US10239876B2, “Triaza-spirodecanones as DDR1 inhibitors” (Hoffmann La-Roche Inc., priority 2015, dated 2019).
pIC50: −log10 of the molar value.

Biological target: intracellular domain of the DDR1 protein (Homo sapiens (Human), UniProt Q08345)
Test: In vitro binding competition assay for DDR1 (Eu-labeled anti-GST antibody / tracer FRET)
Settings: recombinant GST-tagged protein, one hour incubation at room temperature
Excerpt: This assay is based on the intracellular domain of the DDR1 protein which contains the kinase active site. The recombinant protein additionally carries a GST-tag that can be recognized by an Eu-labeled anti-GST antibody. […] Excitation energy absorbed by the Europium complex (350 nm flash light or pulsed laser) is transferred to a suitable fluorescent dye, if it is in close proximity. Compounds binding competitively with the tracer molecule will displace the bound tracer molecules and reduce the FRET signal in a dose dependent manner. Due to the long lifetime of the Eu excited state, the emission of the donor and the acceptor can be measured in time-gated mode such that most of the intrinsic fluorescence contributions have already decayed. […] This sensitive detection method enables protein concentrations below 20 nM.
Protein, tracer and labeled antibody were obtained from commercial sources. […] Dose response curves were generated from 16 compound dilutions in DMSO as solvent compound dilutions, a solution containing protein and labeled antibody, and a solution containing the tracer which is added in the last step. The fluorescence of donor and acceptor were then measured after one hour incubation at room temperature. Every assay run was quality-controlled with dose response curves for two reference compounds.

Sequence of intracellular domain of the DDR1 protein (Q08345 439-913): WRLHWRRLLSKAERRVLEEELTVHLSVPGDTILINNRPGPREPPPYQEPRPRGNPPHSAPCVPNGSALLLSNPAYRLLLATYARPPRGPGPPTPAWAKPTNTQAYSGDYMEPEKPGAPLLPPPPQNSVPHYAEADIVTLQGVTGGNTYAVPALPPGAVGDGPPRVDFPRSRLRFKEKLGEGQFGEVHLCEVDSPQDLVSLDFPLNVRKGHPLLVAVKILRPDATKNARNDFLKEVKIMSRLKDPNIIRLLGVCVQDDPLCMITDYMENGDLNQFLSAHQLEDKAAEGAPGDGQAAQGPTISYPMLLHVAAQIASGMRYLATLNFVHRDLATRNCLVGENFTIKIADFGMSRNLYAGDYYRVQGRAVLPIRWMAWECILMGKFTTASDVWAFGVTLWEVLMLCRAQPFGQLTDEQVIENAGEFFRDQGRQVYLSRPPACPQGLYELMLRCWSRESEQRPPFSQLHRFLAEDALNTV

pIC50	Compound
7.81	O=C(CN1CN(c2ccccc2)C2(CCN(C(=O)c3ccc4[nH]ncc4c3)CC2)C1=O)NCC(F)(F)F [Example 7, 2-(8-(1H-Indazole-5-carbonyl)-4-oxo-1-phenyl-1,3,8-triazaspiro[4.5]decan-3-yl)-N-(2,2,2-trifluoroethyl)acetamide]
7.71	O=C(CN1CN(c2ccccc2)C2(CCN(C(=O)c3ccc4[nH]ncc4n3)CC2)C1=O)NCC(F)(F)F [Example 91, 2-(4-Oxo-1-phenyl-8-(1H-pyrazolo[4,3-b]pyridine-5-carbonyl)-1,3,8-triazaspiro[4.5]decan-3-yl)-N-(2,2,2-trifluoroethyl)acetamide]
